Results taken from patent US9657046B2, “Methods for the treatment and prevention of inflammatory diseases” (Children's Medical Center Corporation, priority 2010, dated 2017).

What was measured:
[1] = test system: pulmonary NKT cells; test: Lung NKT cell subsets (CD4+, DN) by FACS after i.p. glycolipid in 2 week-old mice; format: in vivo, mouse; conditions: i.p. PI57 50 μg or α-GalCer 2 μg, lung 2 wks later
Description: In FIGS. 6A-6B, two-week-old BALB/c mice (n=6-8/group) (6A) or Tbet^−/− mice (6B) (n=4-6 per group) received 5 μg […] (cGal), 2 μg α-GalCer, or vehicle. After OVA sensitization and challenge, AHR was measured on day 44. In FIG. 6C, donor mice were treated with α-C-GalCer (5 μg) or vehicle i.p. NKT cells served as donors, as in FIG. 4A (n=4 per group). Lung resistance (left) and cell counts in BAL (right) were assessed. […] In FIG. 6E, mice received PI57 (50 μg), α-GalCer (2 μg), or vehicle i.p., and lungs were examined 1 or 14 days later for CD4 and CD8 expression. In FIG. 6F, absolute numbers of CD4^+ NKT and DN NKT subsets from 6E were assessed. In FIG. 6G, BALB/c mice (n=5-8/group) received PI57 or vehicle i.p. Lung resistance (left) and BAL cells (right) were assessed. In FIG. 6H, BALB/c mice treated with PI57 (50 μg), PBS30 (Sphingomonas glycolipid) (50 μg), or vehicle i.p. were assessed for AHR as in 6G. In FIG. 6I, donor mice were treated with PI57 (50 μg) or vehicle i.p. NKT cells served as donors as in FIG. 4A. Lung resistance (left) and BAL cells (right) were assessed (n=4 per group). […]
(§1) Cells were preincubated with anti-Fey blocking mAb (2.4G2) and washed before staining. […] Cells were analyzed on a BDCanto flow cytometer (BD Biosciences) using FlowJo 8.3.3 software (Tree Star, Inc.).

[2] = test system: mouse NKT cell lines; test: Staining of mouse NKT cell line with PI57-loaded CD1d tetramers; format: binding
Description: (§2) In FIG. 7A, NKT cell lines were cocultured with BM-derived DCs (BMDCs) and α-GalCer (100 ng/ml), PI57 (10 μg/ml), or vehicle for 48 hours, with or without pre-incubation with anti-CD1d (10 μg/ml). IFN-γ was measured by ELISA. In FIG. 7B, murine NKT cell lines were cocultured as in 7A with BMDCs from WT, Cd1d^−/−, Myd88^−/−, or Trif^−/− mice. Cells were treated with α-GalCer (100 ng/ml), PI57 (2.5, 5, or 10 μg/ml), PBS30 (1, 2.5, or 5 μg/ml), or vehicle for 48 hours. IFN-γ and IL-4 were measured by ELISA. […] In FIG. 7D, mouse NKT cell lines were stained with PE-labeled CD1d tetramers of PI57 or α-GalCer at 4° C. for 45 minutes or 37° C. for 25 minutes, and with anti-TCRβ-APC antibody. Top: Lymphocytes were gated in the FSC/SSC window. Bottom: Percentage of CD1d tetramer+ cells. […] In FIG. 7G, CD1d Fc-coated Maxisorp plates were loaded with lipid and cultured with 5×10^4 NKT cells. IFN-γ was analyzed by ELISA after 24 hours. Data represent 3 or 5 independent experiments.
To generate PI57 loaded mCD1d monomers, a 10-fold molar excess of PI57 in DMSO at 2 mg/ml was incubated with biotinylated-mCD1d (from the NIH Tetramer facility) in 2 mM CHAPS and 20 mM Tris pH7.0 overnight at room temperature. […]
as §1

[3] = test system: human NKT cell lines; test: Human NKT cell lines, IFN-γ and IL-4 production; format: cell-based; conditions: PI57 10 μg/ml, 48 hours in vitro
Description: as §2
Human NKT cells were isolated from peripheral blood of normal volunteers, using a PE-conjugated anti-human NKT cell antibody (clone 6B11, which recognizes the CDR3 loop of the conserved Vα24 TCR found on iNKT cells) (BD Pharmingen) and anti-PE MACS beads (Miltenyi Biotec). Cells retained on the MACS column were then eluted. […]
Mouse or human IL-4 and IFN-γ levels were measured by ELISA, as previously described (20). […]

[4] = test system: BM2a.3 cells; test: Human NKT cell clone on CD1d Fc-coated plates loaded with lipid, IFN-γ ELISA; format: cell-based; conditions: 5×10^4 NKT cells, 24 hours
Description: In FIG. 7A, NKT cell lines were cocultured with BM-derived DCs (BMDCs) and α-GalCer (100 ng/ml), PI57 (10 μg/ml), or vehicle for 48 hours, with or without pre-incubation with anti-CD1d (10 μg/ml). IFN-γ was measured by ELISA. In FIG. 7B, murine NKT cell lines were cocultured as in 7A with BMDCs from WT, Cd1d^−/−, Myd88^−/−, or Trif^−/− mice. Cells were treated with α-GalCer (100 ng/ml), PI57 (2.5, 5, or 10 μg/ml), PBS30 (1, 2.5, or 5 μg/ml), or vehicle for 48 hours. IFN-γ and IL-4 were measured by ELISA. […] In FIG. 7D, mouse NKT cell lines were stained with PE-labeled CD1d tetramers of PI57 or α-GalCer at 4° C. for 45 minutes or 37° C. for 25 minutes, and with anti-TCRβ-APC antibody. Top: Lymphocytes were gated in the FSC/SSC window. Bottom: Percentage of CD1d tetramer+ cells. […] IFN-γ was analyzed by ELISA after 24 hours. […]
Maxisorp plates (Nunc) were coated with PBS diluted recombinant human CD1d/β2 microglobulin Fc fusion proteins (0.5 μg/well; kindly provided by Dr. Jenny Gumperz (64) and anti-LFA-1 antibodies (0.05 μg/well, AbD Serotec) overnight at 4° C. After washing with PBS, immobilized CD1d was loaded with sonicated lipid antigens diluted in 25% DMSO/dH2O by overnight incubation at 37° C. After washing with PBS and culture media, NKT cells were added (5×10^4 cells/well) and culture supernatants were analyzed for IFN-γ by ELISA after overnight culture at 37° C.

## CCCCCCCCCCCCCC(=O)OC[C@H]1O[C@H](O[C@H]2CC[C@@]3(C)C(=CC[C@H]4[C@@H]5CC[C@H]([C@H](C)CCCC(C)C)[C@@]5(C)CC[C@@H]43)C2)[C@H](O)[C@@H](O)[C@@H]1O [PI57, Cholesteryl 6-O-tetradecanoyl-α-D-glucopyranoside]
[1]
  number of NKT cells (CD4+ and DN subsets) in the lung: increased the total number of NKT cells, particularly the number of DN NKT cells
[2]
  fraction of PI57-CD1d tetramer+ cells that were CD4− (DN): 92%
[2]; 4° C. for 45 minutes or 37° C. for 25 minutes
  NKT cells in an NKT cell line stained by glycolipid-loaded CD1d tetramers: 10-23%
[3]
  activation of human NKT cell lines (IFN-γ and IL-4 production): activated
[4]
  IFN-γ induced by plate bound CD1d loaded with glycolipid: induced IFN-γ in BM2a.3 cells
